Measurements as given in patent publication US7759366B2 (Sanofi-Aventis, priority 2006, dated 2010).
pIC50, pKi: −log10 of the molar value.

What was measured:
[1] = target: T1, hCB1R (Homo sapiens, UniProt P21554); assay: Binding to the CB1 receptor ([3H]-SR141716A displacement)
T1 sequence (P21554 whole entry): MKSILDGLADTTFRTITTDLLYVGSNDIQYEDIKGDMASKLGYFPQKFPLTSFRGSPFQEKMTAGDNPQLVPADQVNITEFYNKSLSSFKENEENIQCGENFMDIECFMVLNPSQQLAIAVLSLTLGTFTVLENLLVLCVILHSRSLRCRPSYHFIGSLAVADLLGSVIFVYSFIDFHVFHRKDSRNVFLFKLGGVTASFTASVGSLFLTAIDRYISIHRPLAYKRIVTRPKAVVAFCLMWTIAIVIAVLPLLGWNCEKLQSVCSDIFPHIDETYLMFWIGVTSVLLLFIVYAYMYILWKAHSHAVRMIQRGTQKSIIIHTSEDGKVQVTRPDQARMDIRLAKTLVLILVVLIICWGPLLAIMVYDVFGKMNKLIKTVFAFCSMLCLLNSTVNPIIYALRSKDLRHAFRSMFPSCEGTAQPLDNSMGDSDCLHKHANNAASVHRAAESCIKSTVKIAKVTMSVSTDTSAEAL
Method: Binding to the CB1 Receptor:
Test compounds: The compounds (3 μl, 10 mM, 100% DMSO), pipetted into 96-well PP microtiter plates, were diluted with 27 μl of 100% DMSO (dimethyl sulfoxide). Proceeding from this solution, further 3-fold dilution steps were undertaken by transferring 10 μl in each case to a new PP microtiter plate and adding a further 20 μl of 100% DMSO. In each case 6 μl of these solutions were transferred into new 96-well PP microtiter plates and made up with 144 μl of assay buffer. The end concentrations ranged from 10 μM to 0.005 μM. Negative control: AM 251, dissolved in assay buffer with 1% DMSO, was added to the dilution series in the microtiter plates as a control. The end concentration was 1 μM. Blank control: assay buffer with 1% DMSO was added to the dilution series of the microtiter plates as a blank control.
Summary of the Assay Parameters:
High control: ^3H binding without addition of the compound
Low control: ^3H binding in the presence of 1 μM AM 251
The values were calculated using the corrected raw data.
The values reported were obtained as average values of a double determination. The IC50 values were calculated from the measurements with the program Xlfit, formula 205. Ki values were obtained from the IC50 and Kd values utilizing the Cheng-Prusoff equation: […]
Literature: Cheng, Y.-C., and Prusoff, W. H. (1973) Biochem. Pharmacol 22, 3099-3108

[2] = target: T1, hCB1R; assay: In vitro functional assay (FLIPR, intracellular Ca2+) with recombinant HEK293 cells, CB1; type: cell-based; design: expressed in transfected cells; host or cells: HEK293; conditions: recombinant HEK293 cells expressing CB1 and Galpha16; 20 min preincubation, then reference agonist; Ca2+ change; read-out: hCB1R: FLIPR; IC50
Text: In Vitro Functional Assays with Recombinant Cells:

| SMILES | pKi [1] | pIC50 [2] |
| --- | --- | --- |
| COc1ccc(Nc2ccccc2)c(CN2C(=O)N(c3ccc(C#N)c(C(F)(F)F)c3)C(=O)C2(C)C)c1 [Example 6, 4-[3-(5-Methoxy-2-phenylaminobenzyl)-4,4-dimethyl-2,5-dioxoimidazolidin-1-yl]-2-trifluoromethylbenzonitrile] | 7.68 |  |
| COc1ccc(Nc2ccc(F)cc2)c(CN2C(=O)N(c3ccc(C#N)c(C(F)(F)F)c3)C(=O)C2(C)C)c1 [Example 7, 4-{3-[2-(4-fluorophenylamino)-5-methoxybenzyl]-4,4-dimethyl-2,5-dioxoimidazolidin-1-yl}-2-trifluoromethylbenzonitrile] | 7.82 |  |
| COc1ccc(Nc2ccc(C(F)(F)F)cc2)c(CN2C(=O)N(c3ccc(C#N)c(C(F)(F)F)c3)C(=O)C2(C)C)c1 [Example 8, 4-{3-[5-methoxy-2-(4-trifluoromethylphenylamino)benzyl]-4,4-dimethyl-2,5-dioxoimidazolidin-1-yl}-2-trifluoromethylbenzonitrile] | 7.82 |  |
| COC(=O)C1=C[C@@H](OC(C)=O)[C@H](OC(C)=O)[C@@H](Oc2ccc(Nc3ccccc3CN3C(=O)N(c4ccc(C#N)c(C(F)(F)F)c4)C(=O)C3(C)C)cc2)O1 [Example 197, methyl (4R,5S,6S)-4,5-diacetoxy-6-(4-{2-[3-(4-cyano-3-trifluoromethylphenyl)-5,5-dimethyl-2,4-dioxoimidazolidin-1-ylmethyl]phenylamino}phenoxy)-5,6-dihydro-4H-pyran-2-carboxylate] |  | 7.72 |
| CC1(C)C(=O)N(c2ccc(C#N)c(C(F)(F)F)c2)C(=O)N1Cc1ccccc1Nc1ccc(O)nn1 [Example 198, 4-{3-[2-(6-Hydroxypyridazin-3-ylamino)benzyl]-4,4-dimethyl-2,5-dioxoimidazolidin-1-yl}-2-trifluoromethylbenzonitrile trifluoroacetic acid] |  | 7.64 |
| CC1(C)C(=O)N(c2ccc(C#N)c(C(F)(F)F)c2)C(=O)N1Cc1ccccc1Nc1ccc2c(c1)C(=O)OC2 [Example 200, 4-{4,4-dimethyl-2,5-dioxo-3-[2-(3-oxo-1,3-dihydroisobenzofuran-5-ylamino)benzyl]imidazolidin-1-yl}-2-trifluoromethylbenzonitrile] |  | 8.10 |
| CC1(C)C(=O)N(c2ccc(C#N)c(C(F)(F)F)c2)C(=O)N1Cc1ccccc1Nc1ccc2c(c1)COC2=O [Example 201, 4-{4,4-dimethyl-2,5-dioxo-3-[2-(1-oxo-1,3-dihydroisobenzofuran-5-ylamino)benzyl]imidazolidin-1-yl}-2-trifluoromethylbenzonitrile] |  | 8.30 |
| CC1(C)C(=O)N(c2ccc(F)c(C(F)(F)F)c2)C(=O)N1Cc1ccc(F)cc1Nc1ccc2c(c1)C(=O)CCC2 [Example 204, 1-[4-Fluoro-2-(8-oxo-5,6,7,8-tetrahydronaphthalen-2-ylamino)benzyl]-3-(4-fluoro-3-trifluoromethylphenyl)-5,5-dimethylimidazolidine-2,4-dione] |  | 7.34 |
| CC1(C)C(=O)N(c2ccc(F)c(C(F)(F)F)c2)C(=O)N1Cc1ccc(F)cc1Nc1ccc2c(c1)C(=O)CC2 [Example 205, 1-[4-fluoro-2-(3-oxoindan-5-ylamino)benzyl]-3-(4-fluoro-3-trifluoromethylphenyl)-5,5-dimethylimidazolidine-2,4-dione] |  | 7.77 |
| CC1(C)C(=O)N(c2ccc(F)c(C(F)(F)F)c2)C(=O)N1Cc1ccc(F)cc1Nc1ccc2c(c1)CCC2=O [Example 206, 1-[4-fluoro-2-(1-oxoindan-5-ylamino)benzyl]-3-(4-fluoro-3-trifluoromethylphenyl)-5,5-dimethylimidazolidine-2,4-dione] |  | 7.62 |
| CC(C)(C)Oc1ncc(Nc2ccccc2CN2C(=O)N(c3ccc(C#N)c(C(F)(F)F)c3)C(=O)C2(C)C)c(OC(C)(C)C)n1 [Example 208, 4-{3-[2-(2,4-di-tert-butoxypyrimidin-5-ylamino)benzyl]-4,4-dimethyl-2,5-dioxoimidazolidin-1-yl}-2-trifluoromethylbenzonitrile] |  | 7.89 |
| CC1(C)C(=O)N(c2ccc(C#N)c(C(F)(F)F)c2)C(=O)N1Cc1ccccc1Nc1ccc2cc(C(=O)O)ccc2c1 [Example 209, 6-{2-[3-(4-cyano-3-trifluoromethylphenyl)-5,5-dimethyl-2,4-dioxoimidazolidin-1-ylmethyl]phenylamino}naphthalene-2-carboxylic acid] |  | 7.21 |
| CC1(C)C(=O)N(c2ccc(F)c(C(F)(F)F)c2)C(=O)N1Cc1ccc(F)cc1Nc1ccc(S(C)(=O)=O)cc1 [Example 213, 1-[4-fluoro-2-(4-methanesulfonylphenylamino)benzyl]-3-(4-fluoro-3-trifluoromethylphenyl)-5,5-dimethylimidazolidine-2,4-dione] |  | 6.93 |
| CC(C)(C)c1cc(N2C(=O)N(Cc3ccc(F)cc3Nc3ccc(F)cc3F)C(C)(C)C2=O)ccc1C#N [Example 221, 2-tert-butyl-4-{3-[2-(2,4-difluorophenylamino)-4-fluorobenzyl]-4,4-dimethyl-2,5-dioxoimidazolidin-1-yl}benzonitrile] |  | 8.00 |
| CC1(C)C(=O)N(c2ccc(C#N)c(-c3ccc(Cl)cc3)c2)C(=O)N1Cc1ccc(F)cc1Nc1ccc(C(=O)O)cc1 [Example 228, 4-{2-[3-(4′-chloro-6-cyanobiphenyl-3-yl)-5,5-dimethyl-2,4-dioxoimidazolidin-1-ylmethyl]-5-fluorophenylamino}benzoic acid] |  | 7.21 |
| COC(=O)C(Cc1ccc(Nc2ccccc2CN2C(=O)N(c3ccc(C#N)c(C(F)(F)F)c3)C(=O)C2(C)C)cc1)C(=O)OC [Example 232, Dimethyl 2-(4-{2-[3-(4-cyano-3-trifluoromethylphenyl)-5,5-dimethyl-2,4-dioxoimidazolidin-1-ylmethyl]phenylamino}benzyl)malonate] |  | 6.95 |
| CC(C(=O)O)(C(=O)O)c1ccc(Nc2ccccc2CN2C(=O)N(c3ccc(C#N)c(C(F)(F)F)c3)C(=O)C2(C)C)cc1 [Example 233, 2-(4-{2-[3-(4-Cyano-3-trifluoromethylphenyl)-5,5-dimethyl-2,4-dioxoimidazolidin-1-ylmethyl]phenylamino}phenyl)-2-methylmalonic acid] |  | 7.66 |
| CC1(C)C(=O)N(c2ccc(C#N)c(C(F)(F)F)c2)C(=O)N1Cc1ccccc1Nc1ccc(C(C(=O)O)C(=O)O)cc1 [Example 238, 2-(4-{2-[3-(4-cyano-3-trifluoromethylphenyl)-5,5-dimethyl-2,4-dioxoimidazolidin-1-ylmethyl]phenylamino}phenyl)malonic acid] |  | 8.00 |
| CC1(C)C(=O)N(c2ccc(F)c(C(F)(F)F)c2)C(=O)N1Cc1ccc(F)cc1Nc1ccc2c(c1)C(=O)CCO2 [Example 239, 1-[4-fluoro-2-(4-oxochroman-6-ylamino)benzyl]-3-(4-fluoro-3-trifluoromethylphenyl)-5,5-dimethylimidazolidine-2,4-dione] |  | 6.99 |
| CC1(C)C(=O)N(c2ccc(F)c(C(F)(F)F)c2)C(=O)N1Cc1ccc(F)cc1Nc1ccc(NS(C)(=O)=O)cc1 [Example 240, N-(4-{5-Fluoro-2-[3-(4-fluoro-3-trifluoromethylphenyl)-5,5-dimethyl-2,4-dioxoimidazolidin-1-ylmethyl]phenylamino}phenyl)methanesulfonamide] |  | 7.96 |
| CC1(C)C(=O)N(c2ccc(C#N)c(C(F)(F)F)c2)C(=O)N1Cc1ccccc1Nc1ccc(C(=O)O)c(O)c1 [Example 243] |  | 7.00 |
| CC1(C)C(=O)N(c2ccc(C#N)c(C(F)(F)F)c2)C(=O)N1Cc1ccccc1Nc1cnc(O)nc1O [Example 246, 4-{3-[2-(2,4-Dihydroxypyrimidin-5-ylamino)benzyl]-4,4-dimethyl-2,5-dioxoimidazolidin-1-yl}-2-trifluoromethylbenzonitrile] |  | 8.15 |
| CC1(C)C(=O)N(c2ccc(C#N)c(-c3ccc(F)cc3)c2)C(=O)N1Cc1ccc(F)cc1Nc1ccc(F)cc1F [Example 253, 5-{3-[2-(2,4-Difluorophenylamino)-4-fluorobenzyl]-4,4-dimethyl-2,5-dioxoimidazolidin-1-yl}-4′-fluorobiphenyl-2-carbonitrile] |  | 7.54 |
| CC1(C)C(=O)N(c2ccc(F)c(C(F)(F)F)c2)C(=O)N1Cc1ccc(F)cc1Nc1ccc(F)nc1 [Example 254, 1-[4-Fluoro-2-(6-fluoropyridin-3-ylamino)benzyl]-3-(4-fluoro-3-trifluoromethylphenyl)-5,5-dimethylimidazolidine-2,4-dione] |  | 8.70 |
| COC(=O)c1ccc(Nc2cc(F)ccc2CN2C(=O)N(c3ccc(F)c(C(F)(F)F)c3)C(=O)C2(C)C)cn1 [Example 255, Methyl 5-{5-fluoro-2-[3-(4-fluoro-3-trifluoromethylphenyl)-5,5-dimethyl-2,4-dioxoimidazolidin-1-ylmethyl]phenylamino}pyridine-2-carboxylate] |  | 7.55 |
| CC1(C)C(=O)N(c2ccc(C#N)c(-c3ccc(F)cc3)c2)C(=O)N1Cc1ccc(F)cc1Nc1ccc(C(=O)O)cc1 [Example 258, 4-{2-[3-(6-Cyano-4′-fluorobiphenyl-3-yl)-5,5-dimethyl-2,4-dioxoimidazolidin-1-ylmethyl]-5-fluorophenylamino}benzoic acid] |  | 7.51 |
